The results in this text go back to article PMC8879803, “Identification of a Common Pharmacophore for Binding to MMP2 and RGD Integrin: Towards a Multitarget Approach to Inhibit Cancer Angiogenesis and Metastasis” (Molecules, 2022).

One test has as its system M21 human melanoma cells. Description: Inhibition of integrin-mediated M21 cell adhesion to vitronectin. It counts as cell-based. The note with it: 2 mM MnCl2, relative to vehicle (PBS); for inhibition at 0.3 µM / inhibition at 3 µM / inhibition at 30 µM: Homo sapiens, M21. The procedure: All the compounds but 17 were also tested for their integrin binding affinity towards M21 human melanoma cells that expresses high levels of αvβ3 heterodimer and using cilengitide as a control. Tests were performed in the presence of 2 mM MnCl2 to switch integrins of tumour cells into an activated form, and at final concentration of the compounds ranging from 30 μM to 0.3 μM (Table 3). […] We were pleased to find that compound 19 maintained a good inhibition potency at 0.3 μM as the lowest concentration used, thus confirming the capacity of this compound to inhibit the binding of M21 melanoma cells to vitronectin as an RGD-containing substrate.
The expression levels of αVβ3 integrin receptors on M21 melanoma cell lines were reported previously. Next, 96 wells plates were coated overnight, at 4 °C, with vitronectin (5 μg/mL in PBS) (V8379 Sigma). Plates were, then washed with phosphate buffered saline (PBS) solution and incubated at 37 °C for 1 h with PBS containing 1% bovine serum albumin (BSA). M21 cells were centrifugated (RT, at 700× g) in PBS, to remove serum. Cells were counted and suspended in serum-free medium at 5.0 × 10^5 cells/mL. Melanoma cell suspensions were pre-incubated with different amounts of the compounds. The final concentration ranged from 30 uM to 0.3 uM, using cilengitide as a control. The incubation was performed at 37 °C for 30 min to allow the ligand-receptor equilibrium to be reached. Next, cells were plated on VN substrata (5–6 × 10^4 cells/well) and incubated at 37 °C for 1 h. The assays were conducted in the presence of 2 mmol/L MnCl2 [26]. At the end of the incubation, plates were washed with PBS to remove the non-adherent cells, and 200 μL of 0.5% crystal violet solution in 20% methanol were added. After 2 h of static incubation at 4 °C, plates were examined at 540 nm in a counter ELX800 (Bio TEK Instruments, Winooski, VT, USA). Experiments were done in triplicate and repeated at least three times. The values are expressed as % inhibition of cell adhesion relative to cells exposed to vehicle alone (PBS).

Test [1] addresses T1, purified human integrin proteins αvβ3 (Homo sapiens, UniProt P05106+P06756).
T1 construct: purchased Sino Biological Europe GmbH, Eschborn, Germany
Description: Solid-phase integrin binding assay (competition with biotinylated vitronectin). To be noted: for inhibition at 0.1 µM / inhibition at 1 µM / inhibition at 10 µM: read-out: Inhibition % of biotinylated vitronectin specific binding to αvβ3. How it is done:
As regarding to the binding affinity towards αvβ3, the library was screened using an in vitro solid-phase assays were performed at 10, 1.0 and 0.1 μM concentration of the test compounds for their ability to compete with biotinylated vitronectin for binding to pure αvβ3 integrin isolated from human placenta, and % binding activity is reported in Table 2.
Purified αvβ3 receptors (Sino Biological Europe GmbH, Eschborn, Germany) were diluted to 0.5 μg/mL in coating buffer containing Tris-HCl (20 mmol/L; pH 7.4), NaCl (150 mmol/L), MnCl2 (1 mmol/L), CaCl2 (2 mmol/L) and MgCl2 (1 mmol/L). An aliquot of diluted receptors (100 μL per well) was added to 96-well microtiter plates (MW 96F Medisorp Straight Nunc, Thermo Fischer Scientific, Waltham, MA, USA) and incubated, overnight, at 4 °C. The plates were then incubated with blocking solution (coating buffer plus 5% bovine serum albumin) for an additional 2 h at room temperature to block nonspecific binding followed by 3 h incubation at room temperature with various concentrations of test compounds in the presence of vitronectine (1 μg/mL, Sigma Aldrich, Merck KGaA, Darmstadt, Germany) biotinylated by using EZ-Link Sulfo-NHS-Biotinylation kit (Thermo Fisher, Waltham, MA, USA). After washing, the plates were incubated for 1 h at room temperature with streptavidin–biotinylated peroxidase complex (GE Healthcare, Chicago, IL, USA), followed by 30 min incubation with substrate reagent solution (100 μL; R&D Systems) before stopping the reaction by addition of H2SO4 (2 N, 50 μL). Absorbance at 415 nm was read with a BMG Labtech Fluostar Optima microplate reader. All the experiments were performed in triplicates and data collected were analyzed using the GraphPad 5.0 Software Package.

The target in a further test is MMP9 (Homo sapiens, UniProt P14780). Description: Fluorometric enzyme inhibition assay with fluorogenic substrate Mca-Lys-Pro-Leu-Gly-Leu-Dpa-Ala-Arg-NH2 (MMP9). It counts as biochemical. The note with it: for inhibition at 10 µM: 10 μM compound; for inhibition at 10 µM / inhibition at 50 µM / IC50: enzyme 1 nM; for inhibition at 10 µM / inhibition at 50 µM: mean of three assays; for inhibition at 50 µM: 50 μM compound; for IC50: dose-response. How it is done:
(§1) For all the compounds showing >50% inhibition activity the IC50 values were obtained by dose-response measurements using an inhibitor range of concentrations (0.01 nM–20 μM) and enzyme concentration equal to 1 nM.
(§2) The inhibition potency of hydroxamic acid derivatives against MMP2 and MMP9 was assayed through a fluorometric assay using the fluorogenic substrate Mca-Lys-Pro-Leu-Gly-Leu-Dpa-Ala-Arg-NH2 (Enzo life science). All the measurements were performed in 96-well plates with a Fluostar Optima microplate reader (BMG Labtech, Ortenberg, Germany). Excitation and emission wavelengths were 320 and 420 nm, respectively. All incubations were performed at 28 °C in 50 mM TrisHCl, 150 mM NaCl, 10 mM CaCl2, 0.05% Brij 35, 1% DMSO at pH 7.5. The inhibitors were pre-incubated with enzymes (1 nM) for 5 min at room temperature before the reaction was started by the addition of the fluorogenic substrate (3 µM). The […] of fluorescence was monitored over 30 min (λex = 320 nm, λem = 420 nm) at 28 °C. The percentages of inhibition for the test compounds were determined through the equation (1 − Vs/Vo) × 100, where vs. is the initial velocity in the presence of the inhibitor and V0 is the initial velocity of the uninhibited reaction. The IC50 values were obtained by dose-response measurements using inhibitor range of concentrations 0.00001–20 μM and enzyme concentration equal to 1 nM. A detergent-based assay was used to determine the presence of promiscuous inhibitors. All the experiments were performed in triplicates and data collected were analyzed using Graphpad 5.0 Software Package (GraphPad Prism Inc., San Diego, CA, USA).

The target of another test is T2, MMP2 (Homo sapiens, UniProt P08253).
T2 sequence (P08253 110-660): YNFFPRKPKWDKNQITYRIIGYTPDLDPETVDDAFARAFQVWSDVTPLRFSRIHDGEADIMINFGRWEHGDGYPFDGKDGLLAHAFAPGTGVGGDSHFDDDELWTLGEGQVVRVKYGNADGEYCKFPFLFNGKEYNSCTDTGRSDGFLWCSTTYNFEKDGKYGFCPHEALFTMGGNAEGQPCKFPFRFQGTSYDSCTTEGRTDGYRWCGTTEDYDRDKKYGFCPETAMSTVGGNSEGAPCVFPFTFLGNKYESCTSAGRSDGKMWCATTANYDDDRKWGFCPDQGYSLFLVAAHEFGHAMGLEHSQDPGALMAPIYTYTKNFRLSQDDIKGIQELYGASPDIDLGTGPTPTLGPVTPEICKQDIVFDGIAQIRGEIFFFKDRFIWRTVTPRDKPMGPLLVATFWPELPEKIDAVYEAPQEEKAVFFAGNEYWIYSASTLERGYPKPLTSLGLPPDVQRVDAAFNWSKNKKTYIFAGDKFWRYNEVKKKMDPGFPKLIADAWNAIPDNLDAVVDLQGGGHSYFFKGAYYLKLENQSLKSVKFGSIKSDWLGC
Description: Fluorometric enzyme inhibition assay with fluorogenic substrate Mca-Lys-Pro-Leu-Gly-Leu-Dpa-Ala-Arg-NH2 (MMP2). To be noted: for inhibition at 10 µM: 10 μM compound; for inhibition at 10 µM / inhibition at 50 µM / IC50: enzyme 1 nM; for inhibition at 10 µM / inhibition at 50 µM: mean of three assays; for inhibition at 50 µM: 50 μM compound; for IC50: dose-response. It counts as biochemical. How it is done: as §1, §2

On to “c[RGDf(Me)V] [Cilengitide, reference compound]”, for which the figures for the “Inhibition % of M21 cell adhesion to vitronectin” value with M21 human melanoma cells (at 0.3 μM), in the test with M21 human melanoma cells (at 3 μM) and in the test with M21 human melanoma cells (at 30 μM) were 80%, 76% and 62%, respectively.

For `NCCCOc1ccc(C[C@H](NS(=O)(=O)c2ccc(-c3ccccc3)cc2)C(=O)NO)cc1` [Compound 19, (S)-2-([1,1′-Biphenyl]-4-ylsulfonamido)-3-(4-(3-aminopropoxy)phenyl)-N-hydroxypropanamide], in test [1], the inhibition (commonly the percentage by which the read-out fell short of the control) at 0.1 µM was 21%, the inhibition at 1 µM turned out to be 41% and the inhibition at 10 µM is 88%. Further, the IC50 (as a rule, the concentration at which inhibition is half-maximal) in test [1] (dose-response assay, read-out: IC50 (αvβ3), inhibition of biotinylated vitronectin binding) was determined as 370 nM. On MMP9, this molecule came in with an inhibition at 10 µM of 100%, an inhibition at 50 µM of 100% and a concentration for half-maximal inhibition (IC50) of 38 nM. Besides, the “IC50 towards MMP9, in words” value on MMP9 (statement in text (gelatinases)) is “nanomolar range”. The molecule further showed an inhibition at 0.3 µM in the test with M21 human melanoma cells (at 0.3 μM) of 57.8%. In the test with M21 human melanoma cells (at 3 μM), this molecule came in with an inhibition at 3 µM of 35.8%. Moreover, at 30 µM the inhibition in the test with M21 human melanoma cells (at 30 μM) was 65.7%. At MMP2, the “IC50 towards MMP2, in words” value is recorded as “nanomolar range”; the inhibition at 10 µM came out at 100%; 50 µM produced 100% inhibition; the concentration for half-maximal inhibition (IC50) is 55 nM.

Turning to `N=C(N)NCCCOc1ccc(C[C@H](NS(=O)(=O)c2ccc(-c3ccccc3)cc2)C(=O)O)cc1` [Compound 10, (S)-2-([1,1′-Biphenyl]-4-ylsulfonamido)-3-(4-(3-guanidinopropoxy)phenyl)propanoic Acid], in test [1], the inhibition at 0.1 µM stood at 8%, the inhibition at 1 µM is 1% and the inhibition at 10 µM worked out at 5%. Besides, on MMP9, the inhibition at 10 µM was 0% and the inhibition at 50 µM was 0%. In the test with M21 human melanoma cells (at 0.3 μM), this molecule returned an inhibition at 0.3 µM of 43.8%. The same molecule yielded an inhibition at 3 µM in the test with M21 human melanoma cells (at 3 μM) of 76.7%. This molecule also yielded an inhibition at 30 µM in the test with M21 human melanoma cells (at 30 μM) of 76.9%. On MMP2, this molecule came in with an inhibition at 10 µM of 16% and an inhibition at 50 µM of 41%.

With `N=C(N)NCCCOc1ccc(C[C@H](NS(=O)(=O)c2ccccc2)C(=O)O)cc1` [Compound 9, (S)-3-(4-(3-Guanidinopropoxy)phenyl)-2-(phenylsulfonamido)propanoic Acid], in test [1], the inhibition at 0.1 µM is 0%, the inhibition at 1 µM worked out at 18% and the inhibition at 10 µM turned out to be 54%. On MMP9, this molecule showed an inhibition at 10 µM of 0% and an inhibition at 50 µM of 0%. For the same molecule, in the test with M21 human melanoma cells (at 0.3 μM), the inhibition at 0.3 µM turned out to be 41.4%. The molecule also had an inhibition at 3 µM with M21 human melanoma cells (at 3 μM) of 62.5%. 30 µM produced 75.9% inhibition in the test with M21 human melanoma cells (at 30 μM). In addition, at MMP2, the inhibition at 10 µM is 0% and the inhibition at 50 µM turned out to be 21%.

Take `NCCCOc1ccc(C[C@H](NS(=O)(=O)c2ccc([N+](=O)[O-])cc2)C(=O)O)cc1` [Compound 17, (S)-3-(4-(3-Aminopropoxy)phenyl)-2-(4-nitrophenylsulfonamido)propanoic Acid]: in test [1], the inhibition at 0.1 µM is 0%, the inhibition at 1 µM came to 0% and the inhibition at 10 µM turned out to be 0%. At MMP9, this molecule returned an inhibition at 10 µM of 0% and an inhibition at 50 µM of 0%. On MMP2, this molecule had an inhibition at 10 µM of 0% and an inhibition at 50 µM of 0%.

Take `N=C(N)NCCCOc1ccc(C[C@H](NS(=O)(=O)c2ccccc2)C(=O)NO)cc1` [Compound 18, (S)-3-(4-(3-Guanidinopropoxy)phenyl)-N-hydroxy-2-(phenylsulfonamido)propanamide]: in test [1], the inhibition at 0.1 µM worked out at 0%, the inhibition at 1 µM stood at 0% and the inhibition at 10 µM came out at 27%. For the same molecule, at MMP9, testing at 10 µM gave an inhibition of 42%, at 50 µM the inhibition was 63% and the IC50 amounted to 1300 nM. The inhibition at 0.3 µM with M21 human melanoma cells (at 0.3 μM) came to 44.9%. Further, the inhibition at 3 µM in the test on M21 human melanoma cells (at 3 μM) amounted to 64.3%. In the test with M21 human melanoma cells (at 30 μM), this molecule returned an inhibition at 30 µM of 74.1%. On MMP2, 10 µM produced 52% inhibition; testing at 50 µM gave an inhibition of 75%; the midpoint of inhibition, the IC50, lay at 760 nM.

`O=C(NO)[C@H](Cc1ccc(O)cc1)NS(=O)(=O)c1ccc(-c2ccccc2)cc1` [Compound 21, (S)-2-([1,1′-Biphenyl]-4-ylsulfonamido)-N-hydroxy-3-(4-hydroxyphenyl)propanamide]: in test [1], the inhibition at 0.1 µM came to 20%, the inhibition at 1 µM came out at 12% and the inhibition at 10 µM is 2%. At MMP9, this molecule showed an inhibition at 10 µM of 63%, an inhibition at 50 µM of 73% and an IC50 of 361 nM. The molecule further registered an inhibition at 0.3 µM in the test on M21 human melanoma cells (at 0.3 μM) of 29.7%. In the test on M21 human melanoma cells (at 3 μM), this molecule yielded an inhibition at 3 µM of 28.8%. Besides, in the test on M21 human melanoma cells (at 30 μM), the inhibition at 30 µM was 17.4%. On MMP2, this molecule gave an inhibition at 10 µM of 97%, an inhibition at 50 µM of 100% and an IC50 of 37 nM.
